The target of test [1] is T1, Ac-AChBP (acetylcholine binding protein) (Aplysia californica, UniProt Q8WSF8).
T1 construct: The cDNA encoding the full-length Ac-AChBP was cloned into the pFastBac-Dual vector; 6xHis (C); made in house; host or cells: High Five insect cells (baculovirus, Bac-to-Bac; virus made in Sf9)
T1 sequence (Q8WSF8 20-236): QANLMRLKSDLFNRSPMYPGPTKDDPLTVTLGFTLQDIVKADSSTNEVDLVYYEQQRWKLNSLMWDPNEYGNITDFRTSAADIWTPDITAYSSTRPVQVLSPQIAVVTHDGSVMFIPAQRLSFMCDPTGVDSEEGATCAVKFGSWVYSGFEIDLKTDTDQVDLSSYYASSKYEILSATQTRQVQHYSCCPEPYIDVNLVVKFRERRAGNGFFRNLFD
Put plainly: biochemical.

The target of test [2] is Aplysia californica acetylcholine binding protein (Ac-AChBP) (Aplysia californica). Kind of test: SPR.

Positions of bridges follow the written chain, without caps; N, C: chain ends. Residues, ends and D or L forms follow the SMILES beside them.

Consider `CC[C@H](C)[C@@H]1NC(=O)[C@H](CCC(=O)O)NC(=O)[C@@H]2CCCN2C(=O)[C@H](Cc2cnc[nH]2)NC(=O)[C@H](C)NC(=O)[C@H](C(C)C)NC(=O)[C@H](CC(N)=O)NC(=O)[C@@H]2CSSC[C@H](NC(=O)CN)C(=O)N[C@@H](CSSC[C@@H](C(N)=O)NC1=O)C(=O)N[C@@H](CO)C(=O)N[C@@H](Cc1cnc[nH]1)C(=O)N1CCC[C@H]1C(=O)N[C@@H](C)C(=O)N2` [LvIA (D11A)] (H-GCCSHPACNVAHPEIC-NH2; disulfide 2-8, 3-16), for which binding in test [1] was characterised by a dissociation constant (Kd) of 17.5 nM.

`CC[C@H](C)[C@@H]1NC(=O)[C@H](CCC(=O)O)NC(=O)[C@@H]2CCCN2C(=O)[C@H](Cc2cnc[nH]2)NC(=O)[C@H](CC(=O)O)NC(=O)[C@H](C(C)C)NC(=O)[C@H](C)NC(=O)[C@@H]2CSSC[C@H](NC(=O)CN)C(=O)N[C@@H](CSSC[C@@H](C(N)=O)NC1=O)C(=O)N[C@@H](CO)C(=O)N[C@@H](Cc1cnc[nH]1)C(=O)N1CCC[C@H]1C(=O)N[C@@H](C)C(=O)N2` [LvIA (N9A)] (H-GCCSHPACAVDHPEIC-NH2; disulfide 2-8, 3-16): the affinity in test [1], expressed as Kd, was 82.8 nM.

With `CC[C@H](C)[C@@H]1NC(=O)[C@H](CCC(=O)O)NC(=O)[C@@H]2CCCN2C(=O)[C@H](Cc2cnc[nH]2)NC(=O)[C@H](CC(=O)O)NC(=O)[C@H](C(C)C)NC(=O)[C@H](CC(N)=O)NC(=O)[C@@H]2CSSC[C@H](NC(=O)CN)C(=O)N[C@@H](CSSC[C@@H](C(N)=O)NC1=O)C(=O)N[C@@H](C)C(=O)N[C@@H](Cc1cnc[nH]1)C(=O)N1CCC[C@H]1C(=O)N[C@@H](C)C(=O)N2` [LvIA (S4A)] (H-GCCAHPACNVDHPEIC-NH2; disulfide 2-8, 3-16), the Kd – broadly, a measure of binding affinity in units of concentration – in test [1] worked out at 23.8 nM.

In test [1], `CC[C@H](C)[C@@H]1NC(=O)[C@H](CCC(=O)O)NC(=O)[C@@H]2CCCN2C(=O)[C@H](Cc2cnc[nH]2)NC(=O)[C@H](CC(=O)O)NC(=O)[C@H](C(C)C)NC(=O)[C@H](CC(N)=O)NC(=O)[C@@H]2CSSC[C@H](NC(=O)CN)C(=O)N[C@@H](CSSC[C@@H](C(N)=O)NC1=O)C(=O)N[C@@H](CO)C(=O)N[C@@H](Cc1cnc[nH]1)C(=O)N1CCC[C@H]1C(=O)N[C@@H](C)C(=O)N2` [LvIA WT] displayed an equilibrium dissociation constant (Kd) of 132 nM.

For α-conotoxin LvIA (N9A) (peptide), the dissociation constant Kd in test [2] was determined as 82.8 nM.

With α-conotoxin LvIA (S4A) (peptide), the Kd in test [2] amounted to 23.8 nM.

As to α-conotoxin LvIA (peptide), in test [2], the Kd was found to be 132 nM.
